This passage reports remaining activity results from article PMC4286194 (Biochemical Journal, 2015).

What all share (assay): Kinase profiling
Holding throughout (assay type): biochemical

For experiment [1], the target named is CDK9-Cyclin T1 (Homo sapiens, UniProt P50750).
Experiment [2] deals with T1, IKK beta (Homo sapiens, UniProt O14920).
T1 sequence (O14920 1-756): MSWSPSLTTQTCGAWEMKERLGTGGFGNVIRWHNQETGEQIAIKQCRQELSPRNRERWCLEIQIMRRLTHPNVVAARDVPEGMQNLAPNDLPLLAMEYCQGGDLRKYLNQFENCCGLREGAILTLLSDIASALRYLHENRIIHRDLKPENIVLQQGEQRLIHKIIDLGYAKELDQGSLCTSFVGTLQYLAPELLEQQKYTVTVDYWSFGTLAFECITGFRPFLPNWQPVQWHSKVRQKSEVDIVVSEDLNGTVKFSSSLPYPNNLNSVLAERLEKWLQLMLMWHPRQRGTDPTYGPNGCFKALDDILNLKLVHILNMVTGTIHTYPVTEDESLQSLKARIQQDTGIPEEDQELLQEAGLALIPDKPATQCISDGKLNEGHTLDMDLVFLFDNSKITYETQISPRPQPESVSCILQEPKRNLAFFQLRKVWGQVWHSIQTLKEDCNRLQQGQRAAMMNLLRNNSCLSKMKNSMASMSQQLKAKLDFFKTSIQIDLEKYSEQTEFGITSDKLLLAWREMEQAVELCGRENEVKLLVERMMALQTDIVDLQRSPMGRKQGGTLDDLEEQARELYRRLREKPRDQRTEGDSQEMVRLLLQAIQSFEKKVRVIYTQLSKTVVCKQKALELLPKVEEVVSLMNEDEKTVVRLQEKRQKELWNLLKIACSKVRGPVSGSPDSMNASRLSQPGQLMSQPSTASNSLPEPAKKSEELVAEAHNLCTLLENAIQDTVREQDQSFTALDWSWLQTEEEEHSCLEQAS

Experiment [3] deals with IR (Homo sapiens, UniProt P06213).
The target of experiment [4] is ERK5 (Homo sapiens, UniProt Q13164).
For experiment [5], the target named is JAK2 (Homo sapiens, UniProt O60674).
Experiment [6] deals with MNK2 (Homo sapiens, UniProt Q9HBH9).
Experiment [7] addresses T2, GCK (Homo sapiens, UniProt Q12851).
T2 sequence (Q12851 1-820): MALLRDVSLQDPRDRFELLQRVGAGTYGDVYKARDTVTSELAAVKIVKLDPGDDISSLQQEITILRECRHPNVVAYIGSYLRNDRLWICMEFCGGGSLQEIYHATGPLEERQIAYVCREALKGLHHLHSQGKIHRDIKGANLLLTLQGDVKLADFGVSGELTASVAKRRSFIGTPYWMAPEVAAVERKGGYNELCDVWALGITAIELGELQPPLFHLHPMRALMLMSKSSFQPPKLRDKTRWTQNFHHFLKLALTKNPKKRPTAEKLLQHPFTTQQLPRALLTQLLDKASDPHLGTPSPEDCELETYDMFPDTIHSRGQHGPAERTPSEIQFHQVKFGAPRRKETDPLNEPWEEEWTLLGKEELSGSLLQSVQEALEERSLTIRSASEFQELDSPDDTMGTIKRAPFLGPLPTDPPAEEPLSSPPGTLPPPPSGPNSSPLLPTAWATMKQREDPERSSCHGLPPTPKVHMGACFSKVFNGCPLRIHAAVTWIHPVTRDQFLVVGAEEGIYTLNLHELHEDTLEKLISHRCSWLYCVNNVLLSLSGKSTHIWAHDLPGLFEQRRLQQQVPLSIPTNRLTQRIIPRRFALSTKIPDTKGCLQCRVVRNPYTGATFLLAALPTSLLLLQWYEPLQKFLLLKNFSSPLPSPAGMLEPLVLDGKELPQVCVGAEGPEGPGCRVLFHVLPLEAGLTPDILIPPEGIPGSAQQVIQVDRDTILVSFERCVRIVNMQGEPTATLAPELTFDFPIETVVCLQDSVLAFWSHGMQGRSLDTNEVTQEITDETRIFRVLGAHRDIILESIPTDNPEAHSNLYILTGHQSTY

The target of experiment [8] is T3, SGK1 (Homo sapiens, UniProt O00141).
T3 sequence (O00141 1-431): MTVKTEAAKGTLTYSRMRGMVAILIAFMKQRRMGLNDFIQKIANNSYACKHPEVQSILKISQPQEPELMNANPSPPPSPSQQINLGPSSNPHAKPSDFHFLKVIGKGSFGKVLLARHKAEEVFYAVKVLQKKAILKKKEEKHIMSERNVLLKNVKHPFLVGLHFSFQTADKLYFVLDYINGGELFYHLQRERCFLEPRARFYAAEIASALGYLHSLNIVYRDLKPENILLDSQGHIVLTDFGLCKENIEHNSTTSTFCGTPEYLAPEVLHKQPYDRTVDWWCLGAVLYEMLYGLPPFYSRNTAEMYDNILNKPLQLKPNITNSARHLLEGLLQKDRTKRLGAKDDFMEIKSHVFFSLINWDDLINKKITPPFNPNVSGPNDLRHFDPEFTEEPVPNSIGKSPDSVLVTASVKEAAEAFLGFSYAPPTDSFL

Chain of MNK2 (Q9HBH9 whole entry): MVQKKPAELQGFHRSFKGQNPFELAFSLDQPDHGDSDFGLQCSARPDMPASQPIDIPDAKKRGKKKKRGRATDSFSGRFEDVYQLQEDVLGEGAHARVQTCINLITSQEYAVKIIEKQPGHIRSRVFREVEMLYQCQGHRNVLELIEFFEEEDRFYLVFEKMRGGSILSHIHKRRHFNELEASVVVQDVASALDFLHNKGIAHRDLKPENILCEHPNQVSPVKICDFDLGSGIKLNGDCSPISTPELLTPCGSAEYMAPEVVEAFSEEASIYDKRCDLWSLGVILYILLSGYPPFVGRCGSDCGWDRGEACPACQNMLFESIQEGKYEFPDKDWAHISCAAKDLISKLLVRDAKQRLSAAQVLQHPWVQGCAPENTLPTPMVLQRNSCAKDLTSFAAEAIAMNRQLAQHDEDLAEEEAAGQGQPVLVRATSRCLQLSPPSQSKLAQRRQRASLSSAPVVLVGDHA
Chain of ERK5 (Q13164 whole entry): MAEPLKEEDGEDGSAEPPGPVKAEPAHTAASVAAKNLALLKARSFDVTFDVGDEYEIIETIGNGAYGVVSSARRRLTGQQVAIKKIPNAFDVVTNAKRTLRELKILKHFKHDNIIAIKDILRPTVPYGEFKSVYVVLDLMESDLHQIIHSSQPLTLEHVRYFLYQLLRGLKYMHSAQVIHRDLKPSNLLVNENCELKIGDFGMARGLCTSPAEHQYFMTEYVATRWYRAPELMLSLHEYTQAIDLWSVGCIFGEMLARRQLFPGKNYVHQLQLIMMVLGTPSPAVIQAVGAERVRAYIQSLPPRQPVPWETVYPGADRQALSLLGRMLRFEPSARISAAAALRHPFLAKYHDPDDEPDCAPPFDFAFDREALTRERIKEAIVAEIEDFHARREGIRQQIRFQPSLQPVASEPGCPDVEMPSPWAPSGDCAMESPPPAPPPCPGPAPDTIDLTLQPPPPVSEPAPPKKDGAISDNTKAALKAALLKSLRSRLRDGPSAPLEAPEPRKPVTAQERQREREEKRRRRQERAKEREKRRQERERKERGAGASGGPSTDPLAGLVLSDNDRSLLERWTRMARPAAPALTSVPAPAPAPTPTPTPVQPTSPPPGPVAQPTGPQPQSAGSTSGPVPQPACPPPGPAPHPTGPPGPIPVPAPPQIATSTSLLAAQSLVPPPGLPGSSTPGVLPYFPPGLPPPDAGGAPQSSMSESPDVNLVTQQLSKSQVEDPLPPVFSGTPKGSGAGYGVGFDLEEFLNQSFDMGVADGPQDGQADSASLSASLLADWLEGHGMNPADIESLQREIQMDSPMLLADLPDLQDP
Chain of JAK2 (O60674 whole entry): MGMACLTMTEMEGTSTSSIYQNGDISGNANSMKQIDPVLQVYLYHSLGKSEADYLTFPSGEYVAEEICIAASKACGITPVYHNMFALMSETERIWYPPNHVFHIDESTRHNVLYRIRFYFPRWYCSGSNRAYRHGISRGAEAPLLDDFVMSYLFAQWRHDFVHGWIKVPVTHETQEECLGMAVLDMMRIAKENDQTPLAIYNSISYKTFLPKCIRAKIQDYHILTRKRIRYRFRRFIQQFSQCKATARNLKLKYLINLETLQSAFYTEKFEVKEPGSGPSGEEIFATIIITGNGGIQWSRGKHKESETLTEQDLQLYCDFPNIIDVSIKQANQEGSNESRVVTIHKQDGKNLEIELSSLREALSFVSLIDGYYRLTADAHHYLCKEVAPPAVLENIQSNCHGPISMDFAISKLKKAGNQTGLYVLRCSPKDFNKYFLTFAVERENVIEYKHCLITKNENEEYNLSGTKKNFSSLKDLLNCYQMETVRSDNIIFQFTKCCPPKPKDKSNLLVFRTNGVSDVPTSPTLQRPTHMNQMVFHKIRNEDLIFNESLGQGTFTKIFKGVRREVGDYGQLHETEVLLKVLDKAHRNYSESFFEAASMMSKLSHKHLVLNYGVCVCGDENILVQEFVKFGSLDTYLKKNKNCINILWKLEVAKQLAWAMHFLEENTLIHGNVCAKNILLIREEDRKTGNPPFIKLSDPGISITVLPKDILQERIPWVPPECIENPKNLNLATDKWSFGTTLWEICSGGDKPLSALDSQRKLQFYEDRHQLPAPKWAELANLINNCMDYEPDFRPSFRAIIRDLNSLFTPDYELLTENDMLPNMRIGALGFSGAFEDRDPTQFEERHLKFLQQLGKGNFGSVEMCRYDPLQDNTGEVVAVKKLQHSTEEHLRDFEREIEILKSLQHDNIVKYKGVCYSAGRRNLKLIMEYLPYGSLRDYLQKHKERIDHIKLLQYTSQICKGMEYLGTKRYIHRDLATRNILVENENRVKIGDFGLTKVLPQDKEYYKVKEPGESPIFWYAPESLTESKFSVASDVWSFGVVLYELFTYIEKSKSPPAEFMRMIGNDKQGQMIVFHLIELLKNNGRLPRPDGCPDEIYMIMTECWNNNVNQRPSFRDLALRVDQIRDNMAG
Chain of CDK9-Cyclin T1 (P50750 whole entry): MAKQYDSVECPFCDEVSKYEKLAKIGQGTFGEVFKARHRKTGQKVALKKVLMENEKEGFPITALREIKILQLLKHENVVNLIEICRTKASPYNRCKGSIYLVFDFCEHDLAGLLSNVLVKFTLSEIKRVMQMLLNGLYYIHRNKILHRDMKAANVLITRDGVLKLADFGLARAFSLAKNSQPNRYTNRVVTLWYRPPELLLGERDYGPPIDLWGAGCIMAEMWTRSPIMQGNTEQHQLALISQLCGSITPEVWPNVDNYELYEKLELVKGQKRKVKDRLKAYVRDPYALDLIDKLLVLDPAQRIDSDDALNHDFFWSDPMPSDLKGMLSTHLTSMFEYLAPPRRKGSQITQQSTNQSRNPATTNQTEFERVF
Chain of CDK9-Cyclin T1 (O60563 whole entry partner): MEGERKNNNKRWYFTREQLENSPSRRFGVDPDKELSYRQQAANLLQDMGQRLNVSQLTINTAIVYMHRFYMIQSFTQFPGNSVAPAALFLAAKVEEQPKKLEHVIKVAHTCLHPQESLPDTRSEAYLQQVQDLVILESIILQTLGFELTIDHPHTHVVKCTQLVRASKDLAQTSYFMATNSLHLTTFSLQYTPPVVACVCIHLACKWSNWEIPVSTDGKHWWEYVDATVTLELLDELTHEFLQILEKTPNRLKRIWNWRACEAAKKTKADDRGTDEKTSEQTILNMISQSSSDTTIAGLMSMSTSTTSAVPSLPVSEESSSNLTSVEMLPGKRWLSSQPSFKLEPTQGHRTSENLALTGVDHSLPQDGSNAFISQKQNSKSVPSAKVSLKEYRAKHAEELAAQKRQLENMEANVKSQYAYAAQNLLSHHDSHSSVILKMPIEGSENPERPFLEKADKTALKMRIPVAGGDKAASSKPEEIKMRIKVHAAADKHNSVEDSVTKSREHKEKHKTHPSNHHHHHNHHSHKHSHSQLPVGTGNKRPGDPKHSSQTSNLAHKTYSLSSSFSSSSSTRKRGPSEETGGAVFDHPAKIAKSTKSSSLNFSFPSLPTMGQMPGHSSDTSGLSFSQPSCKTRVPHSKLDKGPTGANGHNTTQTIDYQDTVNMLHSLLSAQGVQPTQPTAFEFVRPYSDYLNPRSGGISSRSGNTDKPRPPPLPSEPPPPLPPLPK
Chain of IR (P06213 28-1382): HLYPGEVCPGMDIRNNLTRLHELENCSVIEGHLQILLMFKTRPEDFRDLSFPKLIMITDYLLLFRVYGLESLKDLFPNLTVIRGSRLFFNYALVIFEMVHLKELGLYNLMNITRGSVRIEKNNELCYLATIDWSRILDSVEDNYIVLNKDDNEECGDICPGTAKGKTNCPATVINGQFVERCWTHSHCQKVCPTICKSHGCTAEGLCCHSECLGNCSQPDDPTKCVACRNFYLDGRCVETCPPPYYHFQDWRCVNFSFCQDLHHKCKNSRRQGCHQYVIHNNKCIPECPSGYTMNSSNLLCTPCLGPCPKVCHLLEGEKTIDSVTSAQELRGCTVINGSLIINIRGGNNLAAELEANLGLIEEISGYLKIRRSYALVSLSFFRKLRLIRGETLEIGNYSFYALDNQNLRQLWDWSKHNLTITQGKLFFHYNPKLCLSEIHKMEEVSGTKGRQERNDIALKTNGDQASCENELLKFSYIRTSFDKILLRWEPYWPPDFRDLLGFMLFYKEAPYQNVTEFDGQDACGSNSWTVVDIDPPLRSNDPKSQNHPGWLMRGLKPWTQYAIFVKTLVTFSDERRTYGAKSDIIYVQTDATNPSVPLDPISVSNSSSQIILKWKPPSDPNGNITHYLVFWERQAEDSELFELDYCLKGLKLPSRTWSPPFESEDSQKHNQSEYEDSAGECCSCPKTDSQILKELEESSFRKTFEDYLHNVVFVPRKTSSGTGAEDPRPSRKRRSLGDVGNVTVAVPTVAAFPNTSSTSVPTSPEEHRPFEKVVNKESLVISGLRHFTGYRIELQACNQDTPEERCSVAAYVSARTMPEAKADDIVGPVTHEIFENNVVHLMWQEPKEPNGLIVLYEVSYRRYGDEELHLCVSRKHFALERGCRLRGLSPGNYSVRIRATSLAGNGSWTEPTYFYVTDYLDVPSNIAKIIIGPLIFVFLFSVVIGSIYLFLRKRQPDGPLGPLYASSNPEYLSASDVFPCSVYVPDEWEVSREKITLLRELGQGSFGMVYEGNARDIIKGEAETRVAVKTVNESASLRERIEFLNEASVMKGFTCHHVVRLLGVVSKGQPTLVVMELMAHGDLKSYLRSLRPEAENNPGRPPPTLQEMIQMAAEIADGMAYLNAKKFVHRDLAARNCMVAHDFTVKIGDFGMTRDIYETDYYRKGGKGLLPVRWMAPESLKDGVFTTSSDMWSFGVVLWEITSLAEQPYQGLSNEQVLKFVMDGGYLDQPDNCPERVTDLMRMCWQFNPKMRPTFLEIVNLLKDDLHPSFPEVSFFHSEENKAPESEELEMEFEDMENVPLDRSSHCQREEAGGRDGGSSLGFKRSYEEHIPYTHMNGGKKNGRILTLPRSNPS

As usually defined, the remaining activity is the signal under treatment as a percentage of the control signal. As for `COc1cc(Nc2c(C#N)cnc3cc(OCCCN4CCN(C)CC4)c(OC)cc23)c(Cl)cc1Cl` [Bosutinib, bosutinib], the remaining activity at 0.1 µM in experiment [1] stood at 101 ± 8%; in experiment [2] it was 92 ± 15%; in experiment [3], 87 ± 7%; in experiment [4] it was 74 ± 6%; in experiment [5] it was 72 ± 5%; in experiment [6], 87 ± 6%. Moreover, the remaining activity at 0.1 µM came out at 9 ± 2% in experiment [7] and 98 ± 20% in experiment [8]. Also, the remaining activity at 1 µM in experiment [1] was 125 ± 16%; in experiment [3], 107 ± 34%; in experiment [4] it was 67 ± 10%; in experiment [5] it was 26%; in experiment [6], 100 ± 9%; in experiment [7] it was 4%. Besides, in experiment [8], the remaining activity at 1 µM was 100 ± 2%.

For `Cc1nc(Nc2ncc(C(=O)Nc3c(C)cccc3Cl)s2)cc(N2CCN(CCO)CC2)n1` [Dasatinib], the remaining activity at 0.1 µM in experiment [1] is 122 ± 8%; in experiment [2], 97 ± 21%; in experiment [3], 99 ± 2%; in experiment [4] it was 87 ± 2%; in experiment [5], 94 ± 2%; in experiment [6], 97 ± 8%. Also, the results for the remaining activity at 0.1 µM in experiment [7] and in experiment [8] were 95 ± 7% and 87 ± 11%, respectively. Moreover, the remaining activity at 1 µM was found to be 138 ± 12% in experiment [1]; 99 ± 9% in experiment [2] (1 µM); 94 ± 7% in experiment [3]; 91 ± 4% in experiment [4]; 42 ± 1% in experiment [5]; 106 ± 2% in experiment [6]. For the same molecule, the remaining activity at 1 µM in experiment [7] stood at 56 ± 8%; in experiment [8], 96 ± 7%.
